Data published in patent US20110077294A1, “R-(-) / S-(+)-7-[3-N SUBSTITUTED AMINO-2 HYDROXYPROPOXY] FLAVONES” (priority 2006, published 2011).

Assays:
Assay type in all cases: in vivo
[1] = tested on: C57BL/KsBom-db/db mice; assay: Blood glucose profile of db/db mice during daily treatment (antihyperglycemic activity)
Procedure, shortened: (§1)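 C57BL/KsBom-db/db mice (12-18 weeks) given test compounds over 10 days with morning blood glucose checks. Day 10 OGTT after overnight fast: compound at −30 min, glucose 3 gm/kg orally at 0 min, blood glucose at 30, 60, 90 and 120 min.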

[2] = tested on: C57BL/KsBom-db/db mice; assay: Serum lipid profile of treated db/db mice (antidyslipidemic activity); settings: 25 mg/kg
[3] = tested on: C57BL/KsBom-db/db mice; assay: Oral glucose tolerance test (OGTT) on day 10 in db/db mice; settings: 25 mg/kg
Procedure, shortened: as §1

[4] = tested on: C57BL/KsBom-db/db mice; assay: Serum lipid profile of treated db/db mice (antidyslipidemic activity); settings: db/db mice, 25 mg/kg

Structure (SMILES): CC(C)NC[C@H](O)COc1ccc2c(=O)cc(-c3cc(O)cc(O)c3)oc2c1 [S-002-857 (S), (S)-(+)-7-(2-Hydroxy-3-isopropylaminopropoxy)-3′,5′-dihydroxyflavone]
- average blood glucose lowering ([1]; 25.0 mg/kg): around 20%
- Blood glucose, day 1 post treatment ([1]; 25 mg/kg, day 1): 12.7 ± 2.61 mM
- Blood glucose % change compared to control, day 1 ([1]; 25 mg/kg, day 1, vs sham): −1.60%
- Blood glucose, day 2 post treatment ([1]; 25 mg/kg, day 2): 12.3 ± 2.40 mM
- Blood glucose % change compared to control, day 2 ([1]; 25 mg/kg, day 2, vs sham): −0.80%
- Blood glucose, day 3 post treatment ([1]; 25 mg/kg, day 3): 11.5 ± 1.80 mM
- Blood glucose % change compared to control, day 3 ([1]; 25 mg/kg, day 3, vs sham): −8.13%
- Blood glucose, day 4 post treatment ([1]; 25 mg/kg, day 4): 11.3 ± 2.54 mM
- Blood glucose % change compared to control, day 4 ([1]; 25 mg/kg, day 4, vs sham): −12.7%
- Blood glucose, day 5 post treatment ([1]; 25 mg/kg, day 5): 10.1 ± 2.08 mM
- Blood glucose % change compared to control, day 5 ([1]; 25 mg/kg, day 5, vs sham): −25.3%
- Blood glucose, day 6 post treatment ([1]; 25 mg/kg, day 6): 9.19 ± 2.25 mM
- Blood glucose % change compared to control, day 6 ([1]; 25 mg/kg, day 6, vs sham): −29.1%
- Blood glucose, day 7 post treatment ([1]; 25 mg/kg, day 7): 9.41 ± 1.37 mM
- lowering in blood glucose, day 7 ([1]; 25.0 mg/kg, day 7, statistically significant): around 37.4%
- Blood glucose % change compared to control, day 7 ([1]; 25 mg/kg, day 7, vs sham): −37.4%
- Blood glucose, day 8 post treatment ([1]; 25 mg/kg, day 8): 9.28 ± 1.02 mM
- lowering in blood glucose, day 8 ([1]; 25.0 mg/kg, day 8, statistically significant): ~36.8%
- Blood glucose % change compared to control, day 8 ([1]; 25 mg/kg, day 8, vs sham): −36.8%
- Blood glucose, day 9 post treatment ([1]; 25 mg/kg, day 9): 7.56 ± 2.13 mM
- lowering in blood glucose, day 9 ([1]; 25.0 mg/kg, day 9, statistically significant): ~43.3%
- Blood glucose % change compared to control, day 9 ([1]; 25 mg/kg, day 9, vs sham): −43.3%
- Serum lipid profile: Cholesterol [2]: 152 ± 7.00 mg/dL
- Serum lipid profile: HDL-Chol [2]: 65.0 ± 6.03 mg/dL
- Serum lipid profile: Triglycerides [2]: 124 ± 3.51 mg/dL
- serum cholesterol, triglycerides (lipid profile) compared to sham treated (in words) [2]: not statistically significant
- Cholesterol % change compared to control ([2]; vs sham): −11.2%
- HDL-Chol % change compared to control ([2]; vs sham): +17.3%
- Triglycerides % change compared to control ([2]; vs sham): −6.54%
- Blood glucose profile, 0 min post glucose load ([3]; OGTT day 10, 0 min): 13.8 ± 2.18 mM
- Blood glucose % change compared to control, 0 min post glucose load ([3]; OGTT day 10, 0 min, vs sham): −21.1%
- Blood glucose profile, 30 min post glucose load ([3]; OGTT day 10, 30 min): 25.3 ± 0.58 mM
- Blood glucose % change compared to control, 30 min post glucose load ([3]; OGTT day 10, 30 min, vs sham): −23.7%
- Blood glucose profile, 60 min post glucose load ([3]; OGTT day 10, 60 min): 19.8 ± 1.20 mM
- Blood glucose % change compared to control, 60 min post glucose load ([3]; OGTT day 10, 60 min, vs sham): −26.9%
- Blood glucose profile, 90 min post glucose load ([3]; OGTT day 10, 90 min): 15.2 ± 0.48 mM
- Blood glucose % change compared to control, 90 min post glucose load ([3]; OGTT day 10, 90 min, vs sham): −31.5%
- Blood glucose profile, 120 min post glucose load ([3]; OGTT day 10, 120 min): 11.6 ± 0.58 mM
- Blood glucose % change compared to control, 120 min post glucose load ([3]; OGTT day 10, 120 min, vs sham): −37.6%
- Blood glucose profile, −30 min post glucose load ([3]; OGTT day 10, −30 min): 8.76 ± 1.90 mM
- Blood glucose % change compared to control, −30 min post glucose load ([3]; OGTT day 10, −30 min, vs sham): −32.2%
- effect of 10 days treatment on glucose tolerance (overall improvement in OGTT) ([3]; vs sham): 27%
- elevation in HDL-cholesterol level than control [4]: 17.3%
